Assay [1] concerns the target T1, Induced myeloid leukemia cell differentiation protein Mcl-1/BH3-interacting domain death agonist (Homo sapiens, UniProt Q07820). Kind of assay: Binding affinity to Mcl-1/Bid (unknown origin) by fluorescence polarization assay. Type of assay: protein assay. On the technique in general: Fluorescence polarisation rises when a labelled molecule tumbles more slowly, as on binding a larger partner.

Assay [2] concerns the target T2, BCL2/BID (Homo sapiens, UniProt P10415). Nature of the assay: Binding affinity to Bcl-2/Bid (unknown origin) by fluorescence polarization assay. Type of assay: protein assay.
Assay [3] deals with T3, Bcl-xL/BH3-interacting domain death agonist (Homo sapiens, UniProt Q07817). Kind of assay: Binding affinity to Bcl-xL/Bid (unknown origin) by fluorescence polarization assay. Type of assay: protein assay.
Assay [4] deals with Apoptosis regulator Bcl-2 (Homo sapiens, UniProt P10415). Kind of assay: Binding affinity to Bcl-2 (unknown origin) assessed as inhibition constant.
The target of assay [5] is T4, Induced myeloid leukemia cell differentiation protein Mcl-1 (Homo sapiens, UniProt Q07820). Kind of assay: Binding affinity to Mcl-1 (unknown origin) assessed as inhibition constant.
The next assay concerns the target Bcl-2-like protein 1 (Homo sapiens, UniProt Q07817). Nature of the assay: Binding affinity to Bcl-xL (unknown origin) assessed as inhibition constant.
A further assay has as its system HeLa. Kind of assay: Cytotoxicity against human HeLa cells. Type of assay: functional, cell-based.
The target of assay [6] is T4, Induced myeloid leukemia cell differentiation protein Mcl-1. Kind of assay: Binding affinity to wildtype Mcl-1 (unknown origin) assessed as dissociation constant by SPR analysis.
Another assay deals with BCL2/BCL2L11 (Homo sapiens, UniProt P10415). Nature of the assay: Inhibition of Bcl-2/Bim (unknown origin) by ELISA method. Type of assay: protein assay. Background: In an ELISA, binding on a coated surface is turned into a signal by an enzyme label.
The target of assay [7] is T5, Induced myeloid leukemia cell differentiation protein Mcl-1/Bcl-2-like protein 11 (Homo sapiens, UniProt Q07820). Kind of assay: Inhibition of Mcl-1/Bim (unknown origin) by ELISA method. Type of assay: protein assay.
Assay [8] is described as follows: Binding affinity to Mcl-1 H224A (unknown origin) assessed as dissociation constant by SPR analysis. More on the design: species or system Homo sapiens.
For a further assay, the system named is K562. Nature of the assay: Cytotoxicity against human K562 cells. Type of assay: functional, cell-based.
The target of assay [9] is T6, Bcl-xL/Bcl-2-like protein 11 (Homo sapiens, UniProt Q07817). Nature of the assay: Inhibition of Bcl-xL/Bim (unknown origin) by ELISA method. Type of assay: protein assay.
Assay [10] concerns the target T5, Induced myeloid leukemia cell differentiation protein Mcl-1/Bcl-2-like protein 11. Kind of assay: Inhibition of GST-tagged Mcl-1/Bim (unknown origin) incubated for 15 mins followed by Bim addition measured after 2 hrs by ELISA method. Type of assay: protein assay.
The target in assay [11] is T6, Bcl-xL/Bcl-2-like protein 11. Nature of the assay: Inhibition of GST-tagged Bcl-xL/Bim (unknown origin) incubated for 15 mins followed by Bim addition measured after 2 hrs by ELISA method. Type of assay: protein assay.
For another assay, the target named is T7, BCL2A1/BAK1 (Homo sapiens, UniProt Q16548+Q16611).
T7 sequence (Q16611 whole entry): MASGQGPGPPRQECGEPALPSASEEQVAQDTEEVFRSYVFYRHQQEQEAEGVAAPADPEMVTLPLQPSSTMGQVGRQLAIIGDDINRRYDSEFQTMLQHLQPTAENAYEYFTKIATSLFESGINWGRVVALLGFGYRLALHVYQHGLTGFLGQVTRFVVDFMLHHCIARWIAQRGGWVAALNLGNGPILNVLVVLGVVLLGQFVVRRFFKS
T7 sequence (Q16548 whole entry): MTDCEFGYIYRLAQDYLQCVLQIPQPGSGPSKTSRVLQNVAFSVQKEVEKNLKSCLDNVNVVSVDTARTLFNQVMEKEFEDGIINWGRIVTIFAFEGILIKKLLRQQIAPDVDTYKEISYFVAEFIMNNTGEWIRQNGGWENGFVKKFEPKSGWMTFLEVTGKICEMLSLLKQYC
Nature of the assay: Inhibition of Bfl-1/Bak (unknown origin). Type of assay: protein assay.

Assay [12] concerns the target Apoptosis regulator Bcl-2/Bcl-2 homologous antagonist/killer (Homo sapiens, UniProt P10415+Q16611). Nature of the assay: Inhibition of Bcl-2/Bak (unknown origin). Type of assay: protein assay.
Another assay addresses MCL1-BAK1 complex (Homo sapiens, UniProt Q07820). Nature of the assay: Binding affinity to Mcl-1/Bak (unknown origin) assessed as inhibition constant by fluorescence polarization assay. Type of assay: protein-complex assay.
Assay [13] concerns the target T8, Bcl-xL/BAK (Homo sapiens, UniProt Q07817). Kind of assay: Binding affinity to Bcl-xL/Bak (unknown origin) assessed as dissociation constant by ITC method. Type of assay: protein assay. On the technique in general: ITC needs no label: the signal is the heat of the interaction.
The target in assay [14] is T8, Bcl-xL/BAK. Kind of assay: Binding affinity to Bcl-xL/Bak (unknown origin) assessed as inhibition constant by fluorescence polarization assay. Type of assay: protein assay.
Assay [15] deals with T2, BCL2/BID. Nature of the assay: Inhibition of Bcl-2/Bid (unknown origin). Type of assay: protein assay.
In the next assay the target is BCL2/BAD (Homo sapiens, UniProt P10415). Kind of assay: Binding affinity to Bcl-2/Bad (unknown origin) assessed as inhibition constant by fluorescence polarisation assay. Type of assay: protein assay.
The target of assay [16] is T3, Bcl-xL/BH3-interacting domain death agonist. Kind of assay: Inhibition of Bcl-xL/Bid complex (unknown origin). Type of assay: protein assay.
Assay [17] has as its target T1, Induced myeloid leukemia cell differentiation protein Mcl-1/BH3-interacting domain death agonist. Nature of the assay: Inhibition of Mcl-1/Bid (unknown origin). Type of assay: protein assay.
Another assay deals with T9, BCL2A1/BID (Homo sapiens, UniProt Q16548).
T9 sequence (Q16548 whole entry): T7 sequence (Q16548 whole entry)
T9 sequence (P55957 whole entry): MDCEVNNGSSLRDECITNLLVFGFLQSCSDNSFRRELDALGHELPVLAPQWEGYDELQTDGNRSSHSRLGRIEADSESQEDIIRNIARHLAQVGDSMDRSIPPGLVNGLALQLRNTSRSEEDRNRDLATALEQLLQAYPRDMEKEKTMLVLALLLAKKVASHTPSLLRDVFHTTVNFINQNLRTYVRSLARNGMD
Nature of the assay: Inhibition of Bfl-1/Bid (unknown origin). Type of assay: protein assay.

Another assay deals with T10, BCL2L2/BID (Homo sapiens, UniProt P55957+Q92843).
T10 sequence (Q92843 whole entry): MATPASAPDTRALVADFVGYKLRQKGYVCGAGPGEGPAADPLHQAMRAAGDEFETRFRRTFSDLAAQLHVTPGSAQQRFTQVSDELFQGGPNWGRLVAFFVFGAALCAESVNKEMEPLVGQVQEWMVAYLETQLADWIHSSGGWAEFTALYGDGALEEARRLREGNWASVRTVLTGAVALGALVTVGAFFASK
T10 sequence (P55957 whole entry): T9 sequence (P55957 whole entry)
Kind of assay: Inhibition of Bcl-W/Bid (unknown origin). Type of assay: protein assay.

Assay [18] is described as follows: Binding affinity to Bcl-xL/Bad (unknown origin) assessed as inhibition constant by fluorescence polarisation assay. Details: species or system Homo sapiens.
The next assay addresses BCL2L10/BID (Homo sapiens, UniProt P55957+Q9HD36). Nature of the assay: Inhibition of Bcl-B/Bid (unknown origin). Type of assay: protein assay.
Assay [19] has as its target T3, Bcl-xL/BH3-interacting domain death agonist. Kind of assay: Inhibition of Bcl-xL/Bid (unknown origin) by fluorescence polarization assay. Type of assay: protein assay.
For assay [20], the target named is T1, Induced myeloid leukemia cell differentiation protein Mcl-1/BH3-interacting domain death agonist. Nature of the assay: Inhibition of Mcl-1/Bid (unknown origin) by fluorescence polarization assay. Type of assay: protein assay.
The subject of the next assay is OPM-2. Nature of the assay: Cytotoxicity against human OPM-2 cells assessed as cell viability. Type of assay: functional, cell-based.

Structures are written as SMILES. Some results are limits rather than exact numbers.

T8 sequence (Q07817 whole entry, one chain of several): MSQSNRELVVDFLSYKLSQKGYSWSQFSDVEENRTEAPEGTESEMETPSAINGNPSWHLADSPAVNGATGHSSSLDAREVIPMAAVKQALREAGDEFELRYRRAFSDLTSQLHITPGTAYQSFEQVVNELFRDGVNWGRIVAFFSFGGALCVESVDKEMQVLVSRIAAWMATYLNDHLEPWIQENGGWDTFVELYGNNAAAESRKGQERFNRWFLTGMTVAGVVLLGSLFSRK
T6 sequence (Q07817 whole entry): as the sequence (Q07817 whole entry, one chain of several) above
T6 sequence (O43521 whole entry, further chain): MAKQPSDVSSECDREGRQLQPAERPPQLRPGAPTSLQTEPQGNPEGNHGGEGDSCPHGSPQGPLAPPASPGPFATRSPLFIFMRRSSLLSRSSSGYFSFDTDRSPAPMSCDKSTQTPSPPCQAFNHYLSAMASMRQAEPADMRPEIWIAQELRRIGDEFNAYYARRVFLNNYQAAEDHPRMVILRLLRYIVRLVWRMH
T3 sequence (Q07817 whole entry, one chain of several, the tested form may be a part): as the sequence (Q07817 whole entry, one chain of several) above
T4 sequence (Q07820 whole entry): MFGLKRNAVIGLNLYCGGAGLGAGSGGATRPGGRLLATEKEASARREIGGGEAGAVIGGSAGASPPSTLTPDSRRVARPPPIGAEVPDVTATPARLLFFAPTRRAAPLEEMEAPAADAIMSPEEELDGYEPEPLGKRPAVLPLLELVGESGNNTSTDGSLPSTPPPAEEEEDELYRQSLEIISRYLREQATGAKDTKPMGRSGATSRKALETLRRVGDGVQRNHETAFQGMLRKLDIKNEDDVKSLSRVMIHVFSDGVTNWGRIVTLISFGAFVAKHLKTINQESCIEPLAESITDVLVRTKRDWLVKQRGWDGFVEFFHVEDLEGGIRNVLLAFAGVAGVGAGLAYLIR
T5 sequence (Q07820 whole entry): as above
T5 sequence (O43521 whole entry, further chain): as the sequence (O43521 whole entry, further chain) above
T1 sequence (Q07820 whole entry, one chain of several, the tested form may be a part): as the sequence (Q07820 whole entry) above
T2 sequence (P10415 whole entry, one chain of several, the tested form may be a part): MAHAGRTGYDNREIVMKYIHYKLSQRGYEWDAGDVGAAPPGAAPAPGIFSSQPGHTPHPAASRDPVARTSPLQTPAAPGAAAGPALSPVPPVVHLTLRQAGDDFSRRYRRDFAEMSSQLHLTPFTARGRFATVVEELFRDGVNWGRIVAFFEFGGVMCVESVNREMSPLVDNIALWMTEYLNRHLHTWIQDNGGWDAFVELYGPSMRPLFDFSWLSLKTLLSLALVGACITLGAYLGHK
Sequence of MCL1-BAK1 complex (Q07820 whole entry, one chain of several): as the sequence (Q07820 whole entry) above
Sequence of BCL2/BCL2L11 (P10415 whole entry): as the sequence (P10415 whole entry, one chain of several, the tested form may be a part) above
Sequence of BCL2/BCL2L11 (O43521 whole entry, further chain): as the sequence (O43521 whole entry, further chain) above
Sequence of Bcl-2-like protein 1 (Q07817 whole entry): as the sequence (Q07817 whole entry, one chain of several) above
Sequence of BCL2L10/BID (Q9HD36 whole entry, one chain of several, the tested form may be a part): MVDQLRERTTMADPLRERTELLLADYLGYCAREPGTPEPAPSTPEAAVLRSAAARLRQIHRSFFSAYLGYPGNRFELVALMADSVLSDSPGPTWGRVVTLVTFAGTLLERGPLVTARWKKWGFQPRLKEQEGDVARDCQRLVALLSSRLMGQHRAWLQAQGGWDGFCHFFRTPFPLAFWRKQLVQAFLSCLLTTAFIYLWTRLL
Sequence of Apoptosis regulator Bcl-2/Bcl-2 homologous antagonist/killer (P10415 whole entry, one chain of several): as the sequence (P10415 whole entry, one chain of several, the tested form may be a part) above
Sequence of Apoptosis regulator Bcl-2 (P10415 whole entry): as the sequence (P10415 whole entry, one chain of several, the tested form may be a part) above
Sequence of BCL2/BAD (Q92934 whole entry, the tested form may be a part): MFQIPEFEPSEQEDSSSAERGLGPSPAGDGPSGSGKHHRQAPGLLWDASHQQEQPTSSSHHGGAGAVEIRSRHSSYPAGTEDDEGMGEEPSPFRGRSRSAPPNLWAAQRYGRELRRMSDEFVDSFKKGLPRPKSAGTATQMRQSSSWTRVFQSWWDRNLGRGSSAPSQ
Sequence of BCL2/BAD (P10415 whole entry, the tested form may be a part): as the sequence (P10415 whole entry, one chain of several, the tested form may be a part) above

`O=C(Cn1nnnc1-c1ccccc1Oc1ccc(Cl)cc1Cl)NNC(=S)Nc1ccc([N+](=O)[O-])cc1`: the Ki (usually the equilibrium dissociation constant of an inhibitor or competing ligand from its target) in assay [1] was found to be 2 µM; at BCL2/BID [2] it was 2.4 µM; in assay [3], 3 µM.
Take `O=C(O)C1C2CC(Sc3ccccc3[N+](=O)[O-])C(Cl)C2c2cc(Cl)cc3c2N1CC1CC=CC31` (stereo not given): the Ki in assay [4] was 15 µM; in assay [5] it was 0.53 µM; at Bcl-2-like protein 1, not below 50 µM.
With `O=C1CCC(N2C(=O)c3cccc4c(Sc5ccc(Br)cc5)ccc(c34)C2=O)C(=O)N1` (stereo not given), the IC50 – broadly, the concentration needed to halve the response being measured – stood at 10.4 µM in the assay on HeLa, 0.43 µM against BCL2/BCL2L11, 0.15 µM in assay [7] and 7.3 µM with K562. In addition, the values for the Kd in assay [6] and in [8] were 0.15 µM and 0.13 µM, respectively.
Regarding `O=C(COc1ccc2ccccc2c1)NCCN1C(=O)c2cccc3c(Sc4ccc(Br)cc4)ccc(c23)C1=O`, the concentration for half-maximal inhibition (IC50) was found to be 43.2 µM in the assay with HeLa, 9.46 µM on BCL2/BCL2L11, 0.51 µM in assay [7] and 10.1 µM in the assay with K562. Further, the Kd (usually the free concentration of one partner at which half of the binding sites on the other are occupied at equilibrium, for simple one-to-one binding) in assay [6] was found to be 0.15 µM; in [8], 1.13 µM.
Consider `O=C(Cn1nnc(-c2ccccc2Oc2ccc(Cl)cc2Cl)n1)NNC(=S)Nc1ccc([N+](=O)[O-])cc1`, for which the values for the Ki (in assay [1]; at BCL2/BID [2]; in [3]) were 2.2 µM, 1.9 µM and 3.5 µM, respectively.
For `O=C1c2ccc(OS(=O)(=O)C(F)(F)F)cc2Oc2c(Cl)c(Cl)c(C(=O)c3ccc(OS(=O)(=O)C(F)(F)F)cc3O)n2-c2c1[nH]c(Cl)c2Cl`, the results for the IC50 in [9] and in [7] were 2.3 µM and 1.4 µM, respectively.
The matching figures for `COC(=O)c1ccc(C(=O)c2c(Cl)c(Cl)c3n2-c2c([nH]c(Cl)c2Cl)C(=O)c2ccc(C(=O)OC)cc2O3)c(O)c1`: 3.4 µM and 4.3 µM.
With `O=C(c1ccc(SCc2ccccc2)cc1O)c1[nH]c(Cl)c(Cl)c1-n1cc(Cl)c(Cl)c1C(=O)c1ccc(SCc2ccccc2)cc1O`, the IC50 in assay [10] turned out to be 0.7 µM; in assay [11] it was 0.6 µM.
For the compound `Cc1cc2c(C(=O)NC(C)c3ccc(Cl)cc3)c(O)c(O)cc2c(O)c1-c1c(C)cc2c(C(=O)NC(C)c3ccc(Cl)cc3)c(O)c(O)cc2c1O` (stereo not given), the half-maximal inhibitory concentration (IC50) at BCL2A1/BAK1 was determined as 0.4 µM; in assay [12], 0.49 µM.
For `COc1ccc(-c2ccc(/C=C3\SC(=S)N([C@@H](Cc4ccccc4)C(=O)O)C3=O)cn2)cc1OC`, the Ki was 8 µM at MCL1-BAK1 complex and more than 100 µM on Bcl-xL/BAK [14]. In addition, the Kd at Bcl-xL/BAK [13] is more than 750 µM.
Regarding `COc1cccc(-c2ccc(/C=C3\SC(=S)N([C@@H](Cc4ccccc4)C(=O)O)C3=O)cn2)c1OC`, the Ki on MCL1-BAK1 complex was found to be 6.9 µM. Further, the Kd on Bcl-xL/BAK [13] was 3.4 µM.
As for `O=C(O[C@@H]1Cc2c(O)cc(O)cc2O[C@@H]1c1cc(O)c(O)c(O)c1)c1cc(O)c(O)c(O)c1` [EPIGALOCATECHIN GALLATE], the half-maximal inhibitory concentration (IC50) against BCL2/BID [15] came out at 0.45 µM; in assay [16], 0.59 µM; in assay [17], 0.92 µM; on BCL2A1/BID it was 1.79 µM; at BCL2L2/BID it was 2.33 µM; against BCL2L10/BID it was 0.36 µM. For the same compound, the inhibition constant (Ki) on BCL2/BAD is 0.49 µM; in assay [18], 0.335 µM.
Consider `Cc1cc2c(C(C)C)c(O)c(O)c(C=O)c2c(O)c1-c1c(C)cc2c(C(C)C)c(O)c(O)c(C=O)c2c1O` [GOSSYPOL], for which the IC50 in assay [19] is 3.03 µM; in assay [20] it was 1.75 µM.
As for `O=C(O)C(O)c1ccccc1` (stereo not given) [MANDELIC ACID], the IC50 in the assay on OPM-2 worked out at 0.019 µM.

Values taken from ChEMBL document CHEMBL5113375, “Development of Mcl-1 inhibitors for cancer therapy” (Eur J Med Chem, 2021).
